Active and inactive are the calls of the source. No cut-off for these calls is given here.
Tests used:
SK-MEL-5 [1] = assay: Antiproliferative activity against human SK-MEL-5 cells assessed as cell growth inhibition incubated for 48 hrs by MTT assay; type: functional, cell-based; conditions: SK-MEL-5, 48 h
A-375 [2] = assay: Antiproliferative activity against human A375 cells assessed as cell growth inhibition incubated for 48 hrs by MTT assay; type: functional, cell-based; conditions: A-375, 48 h
SK-MEL-28 [3] = assay: Antiproliferative activity against human SK-MEL-28 cells assessed as cell growth inhibition incubated for 48 hrs by MTT assay; type: functional, cell-based; conditions: SK-MEL-28, 48 h
A-375 [4] = assay: Antiproliferative activity against human A375 cells assessed as cell growth inhibition at 100 uM measured after 48 hrs by MTT assay relative to control; type: functional; conditions: A-375, 48 h
SK-MEL-28 [5] = assay: Antiproliferative activity against human SK-MEL-28 cells assessed as cell growth inhibition at 100 uM measured after 48 hrs by MTT assay relative to control; type: functional; conditions: SK-MEL-28, 48 h
SK-MEL-5 [6] = assay: Antiproliferative activity against human SK-MEL-5 cells assessed as cell growth inhibition at 100 uM incubated for 48 hrs by MTT assay relative to control; type: functional; conditions: SK-MEL-5, 48 h
Tubulin (Homo sapiens) = Tubulin (Homo sapiens) (UniProt P68371+Q9H4B7+P0DPH7+P68366+Q13509+Q71U36+P04350+Q3ZCM7+P07437+P68363+Q9BQE3+Q6PEY2+Q13885+Q9BVA1+Q9BUF5); assay: Inhibition of tubulin in human SK-MEL-28 cells assessed as disruption of microtubule network at 1 to 2 uM by Alexa Fluor 488 and DAPI staining based fluorescence microscopic method; type: cell-based
SK-MEL-28 [7] = assay: Cell cycle arrest in human SK-MEL-28 cells assessed as accumulation at G2/M phase after 24 hrs by […] dye staining based fluorescence assay; type: functional
SK-MEL-28 [8] = assay: Induction of apoptosis in human SK-MEL-28 cells incubated for 24 hrs by Annexin V-FITC/propidium iodide staining based flow cytometric analysis; type: functional, cell-based
SK-MEL-28 [9] = assay: Inhibition of colony formation in human SK-MEL-28 cells at 2 uM supplemented with fresh medium containing compound every 72 hrs for 2 weeks by crystal violet staining based assay; type: functional
SK-MEL-28 [10] = assay: Antimigratory activity against human SK-MEL-28 cells assessed as reduction in cell migration at 1 uM measured after 48 hrs by wound healing assay; type: functional, cell-based
SK-MEL-28 [11] = assay: Potency index, ratio of carvedilol IC50 to test compound IC50 for antiproliferative activity against human SK-MEL-28 cells; type: functional
A-375 [12] = assay: Potency index, ratio of carvedilol IC50 to test compound IC50 for antiproliferative activity against human A375 cells; type: functional
SK-MEL-5 [13] = assay: Potency index, ratio of carvedilol IC50 to test compound IC50 for antiproliferative activity against human SK-MEL-5 cells; type: functional
SK-MEL-28 [14] = assay: Inhibition of colony formation in human SK-MEL-28 cells at 5 to 100 uM supplemented with fresh medium containing compound every 72 hrs for 2 weeks by crystal violet staining based assay; type: functional, cell-based
SK-MEL-28 [15] = assay: Cell cycle arrest in human SK-MEL-28 cells assessed as accumulation at G2/M phase at 5 nM after 24 hrs by […] dye staining based fluorescence assay; type: functional

Structure (SMILES)	IC50 (SK-MEL-5 [1]) [µM]	IC50 (A-375 [2]) [µM]	IC50 (SK-MEL-28 [3]) [µM]	also measured
c1ccc(-c2ccc(CNCCCOc3cccc4[nH]c5ccccc5c34)cc2)cc1	4.28	6.59	4.39	–
COCCc1ccc(OCC(O)CNC(C)C)cc1 (stereo unspecified) [METOPROLOL]	> 100	> 100	> 100	inhibition at 100 µM (A-375 [4]): 26.3%; inhibition at 100 µM (SK-MEL-28 [5]): 30%; inhibition at 100 µM (SK-MEL-5 [6]): 38.8%
COc1ccccc1OCCNCCCOc1cccc2[nH]c3ccccc3c12	6.18	6.88	6.66	–
CC(C)NCC(O)COc1cccc2[nH]c3ccccc3c12 (stereo unspecified) [CARAZOLOL]	33.7	35.4	31.3	–
OC(COc1ccc(-c2ccccc2)cc1)CN1CCN(c2ccccn2)CC1 (racemic)	21.2	28.2	25	–
CC(C)NCC(O)COc1ccc(COCCOC(C)C)cc1 (stereo unspecified) [BISOPROLOL]	> 100	> 100	> 100	inhibition at 100 µM (A-375 [4]): 28.3%; inhibition at 100 µM (SK-MEL-28 [5]): 6.4%; inhibition at 100 µM (SK-MEL-5 [6]): 14.8%
Cc1ccc2cccc(NCCCOc3cccc4[nH]c5ccccc5c34)c2n1	16.4	22.3	19.8	–
COc1ccccc1N1CCN(CCCOc2cccc3[nH]c4ccccc4c23)CC1	13.7	10.8	11.4	–
OC(COc1cccc2[nH]c3ccccc3c12)CN1CCN(c2ccccn2)CC1 (racemic)	26.1	31.8	24.7	–
Cc1ccc2cccc(NCC(O)COc3cccc4[nH]c5ccccc5c34)c2n1 (racemic)	14.5	14.1	14.2	–
CC(C)NCC(O)COc1ccc(-c2ccccc2)cc1 (racemic)	12	11	11.9	–
COc1ccccc1OCCNC[C@H](O)COc1cccc2[nH]c3ccccc3c12	7.04	14.7	10.5	–
O[C@@H](CNCc1ccc(-c2ccccc2)cc1)COc1cccc2[nH]c3ccccc3c12	2.69	5.22	4.99	–
OC(CNCc1ccc(-c2ccccc2)cc1)COc1cccc(Nc2ccccc2)c1 (racemic)	3.7	1.98	3.3	inhibition (Tubulin (Homo sapiens)): Active; Activity (SK-MEL-28 [7]): Dose-dependent effect; Activity (SK-MEL-28 [8]): Dose-dependent effect; inhibition (INH) (SK-MEL-28 [9]): 100%; Activity (SK-MEL-28 [10]): Active
c1ccc(Nc2cccc(OCCCNCc3ccc(-c4ccccc4)cc3)c2)cc1	4.72	2.31	3.8	–
OC(CNCc1ccc(-c2ccccc2)cc1)COc1cccc2[nH]c3ccccc3c12 (racemic)	3.14	5.56	3.8	Ratio IC50 (SK-MEL-28 [11]): 15; Ratio IC50 (A-375 [12]): 15; Ratio IC50 (SK-MEL-5 [13]): 15; Activity (SK-MEL-28 [10]): Active
OC(CNc1ccc(-c2ccccc2)cc1)COc1cccc2[nH]c3ccccc3c12 (racemic)	13.9	13.5	12.5	–

Structure (SMILES)	IC50 (SK-MEL-5 [1]) [µM]	IC50 (A-375 [2]) [µM]	IC50 (SK-MEL-28 [3]) [µM]	also measured
CC(C)(C)NC[C@H](O)COc1nsnc1N1CCOCC1 [TIMOLOL]	> 100	> 100	> 100	inhibition at 100 µM (A-375 [4]): 22.7%; inhibition at 100 µM (SK-MEL-28 [5]): 18.6%; inhibition at 100 µM (SK-MEL-5 [6]): 33.3%
c1ccc(N2CCN(CCCOc3cccc4[nH]c5ccccc5c34)CC2)cc1	36.9	22.6	19.2	–
OC(COc1cccc2[nH]c3ccccc3c12)CN1CCN(c2ccccc2)CC1 (racemic)	17	16.3	18.5	–
COc1ccccc1OCCNCC(O)COc1cccc2[nH]c3ccccc3c12 (stereo unspecified) [CARVEDILOL]	13.7	13	15.6	inhibition (SK-MEL-28 [14]): Active
COc1ccccc1OCCNCC(O)COc1cccc2ccccc12 (racemic)	10.1	18.9	13.5	–
COc1ccccc1N1CCN(CC(O)COc2cccc3[nH]c4ccccc4c23)CC1 (racemic)	13.6	13.9	14.1	–
OC(COc1ccc(-c2ccccc2)cc1)CN1CCN(c2ccccc2)CC1 (racemic)	12.2	14.3	15.3	–
CC(C)NCC(O)COc1cccc2ccccc12 (stereo unspecified)	–	–	–	inhibition (SK-MEL-28 [14]): Active
CC(C)NCC(O)COc1ccc(CC(N)=O)cc1 (stereo unspecified) [ATENOLOL]	> 100	> 100	> 100	inhibition at 100 µM (A-375 [4]): 8.6%; inhibition at 100 µM (SK-MEL-28 [5]): 6.9%; inhibition at 100 µM (SK-MEL-5 [6]): 5.2%
c1ccc(N2CCN(CCCOc3cccc4[nH]c5ccccc5c34)CC2)nc1	11.5	13.9	15.5	–
CC(C)NCC(O)c1ccc(NS(C)(=O)=O)cc1 (stereo unspecified) [SOTALOL]	> 100	> 100	> 100	inhibition at 100 µM (A-375 [4]): 15.2%; inhibition at 100 µM (SK-MEL-28 [5]): 7.4%; inhibition at 100 µM (SK-MEL-5 [6]): 2.1%
COc1cc2c(c(OC)c1OC)-c1ccc(OC)c(=O)cc1[C@@H](NC(C)=O)CC2	–	–	–	Activity (SK-MEL-28 [15]): Active
COc1ccccc1OCCNCC(O)COc1ccc2ccccc2c1 (racemic)	18.5	21.1	19.7	–
COc1ccccc1OCCNCC(O)COc1ccc(-c2ccccc2)cc1 (racemic)	5.86	8.37	6.01	–
COC(=O)CCc1ccc(OCC(O)CNC(C)C)cc1 (stereo unspecified) [ESMOLOL]	> 100	> 100	> 100	inhibition at 100 µM (A-375 [4]): 22.8%; inhibition at 100 µM (SK-MEL-28 [5]): 25.8%; inhibition at 100 µM (SK-MEL-5 [6]): 31.4%
CC(CCc1ccccc1)NCC(O)c1ccc(O)c(C(N)=O)c1 (stereo unspecified) [LABETALOL]	> 100	> 100	> 100	inhibition at 100 µM (A-375 [4]): 38.1%; inhibition at 100 µM (SK-MEL-28 [5]): 35.6%; inhibition at 100 µM (SK-MEL-5 [6]): 36.2%
